# Counter-ions that a name gives are not always drawn. Like-named read-outs stand apart in the source and are kept apart here.
# Legend:
# mice [1] = assay: in vivo toxicity study in mice
# Method: (§2) Five groups of mice (3 mice per group) were administered a 50 mg/kg dosage of Formula II.
# Leukemia Cell Line P388 = assay: in vitro test on cell line P388; type: cell-based, murine; conditions: Mus musculus
# Method: (§1) The COTI-001 compound was tested in vitro on a variety of cell lines comparing its effect to a known protein tyrosine kinase inhibitor used in the treatment of certain cancers.
# Leukemia Cell Line K562 = assay: in vitro test on cell line K562; type: cell-based; conditions: Homo sapiens
# Method: as §1
# [2] = test system: Breast Cancer Cell Line MCF7; assay: in vitro test on cell line MCF7; type: cell-based; conditions: Homo sapiens, MCF7, read-out: Actual −Log(GI50) (converted)
# Method: as §1
# mice [3] = conditions: mouse, in vivo, 50 mg/kg
# Method: as §2
compound,measurement,setting,value
"CC1CN=C(c2ccc(NC(=O)c3ccc(C(=O)Nc4ccc(C5=NCC(C)CN5)cc4)nc3)cc2)NC1 (centres unmarked) [Formula II, N,N′-Bis[4-(1,4,5,6-tetrahydro-5-methyl-2-pyrimidinyl)phenyl]-2,5-pyridinedicarboxamide dihydrochloride]",tolerated dosage,mice [1],≤ 25 mg/kg
same,tolerability of dosage,mice [1]; 50 mg/kg dosage,not tolerated
same,GI50,"Leukemia Cell Line P388; P388, read-out: Actual −Log(GI50) (converted)",1000 nM
same,GI50,"Leukemia Cell Line K562; K562, read-out: Actual −Log(GI50) (converted)",20000 nM
same,GI50,[2],20000 nM
"Cc1ccc(NC(=O)c2ccc(CN3CCN(C)CC3)cc2)cc1Nc1nccc(-c2cccnc2)n1 [Gleevec ™, reference compound]",tolerability of dosage,mice [3],able to tolerate this dosage amount
same,GI50,"Leukemia Cell Line P388; Leukemia Cell Line P388, in vitro result, read-out: Actual −Log(GI50) (converted)",2000 nM
same,GI50,"Leukemia Cell Line K562; Leukemia Cell Line K562, in vitro result, read-out: Actual −Log(GI50) (converted)",1000 nM
